The values below come from patent publication US9156872B2, “2′-azido substituted nucleoside derivatives and methods of use thereof for the treatment of viral diseases” (priority 2011, dated 2015).

The structures appear in SMILES notation. pEC50: −log10 of the molar value. Read-outs that look alike come from different tables or passages of the source.

This experiment has as its system HCV replicon cells. Nature of the experiment: Cell-based HCV replicon assay (replicon RNA by Taqman real time PCR). As to conditions: read-out: 1b EC50.
Setting [1] is: Hepatitis C virus, 72 h, HCV replicon 1b, cells harvested on day 3.

In the case of `CCOc1nc(N)nc2c1ncn2[C@@H]1O[C@H](COP(=O)(N[C@@H](C)C(=O)OC)Oc2ccccc2Cl)[C@@H](O)[C@@]1(C)N=[N+]=[N-]` (single isomer, unassigned) [Compound 310], the negative logarithm of the EC50 (pEC50) is 6.03.
Same read-out and setting: under `CCOC(=O)c1ccccc1OP(=O)(N[C@@H](C)C(=O)OC)OC[C@H]1O[C@@H](n2ccc(=O)[nH]c2=O)[C@](C)(N=[N+]=[N-])[C@@H]1O` (single isomer, unassigned) [Compound 225] stands 5.55; under `COc1nc(N)nc2c1ncn2[C@@H]1O[C@H](COP(=O)(N[C@@H](C)C(=O)OCC(C)C)Oc2ccc(Cl)cc2)[C@@H](O)[C@@]1(C)N=[N+]=[N-]` (single isomer, unassigned) [Compound 296], 7.00; under `COC(=O)[C@H](C)NP(=O)(OC[C@H]1O[C@@H](n2cnc3c(OC)nc(N)nc32)[C@](C)(N=[N+]=[N-])C1O)Oc1ccccc1` (single isomer, unassigned) [Compound 260], 5.44.
For the compound `CCOc1nc(N)nc2c1ncn2[C@@H]1O[C@H](COP(=O)(N[C@@H](C)C(=O)OC)Oc2ccc(Cl)cc2)[C@@H](O)[C@@]1(C)N=[N+]=[N-]` (some centres unmarked) [Compound 63], the pEC50 (Hepatitis C virus, 72 h) was 6.40.
`CCCCOC(=O)[C@H](C)NP(=O)(OC[C@H]1O[C@@H](n2ccc(=O)[nH]c2=O)[C@](C)(N=[N+]=[N-])[C@@H]1O)Oc1ccc(Cl)c(Cl)c1` (some centres unmarked) [Compound 372]: the negative logarithm of the EC50 (pEC50) (Hepatitis C virus, 72 h) was 5.22.
In the case of `CCCC(CCC)COC(=O)[C@H](C)NP(=O)(O)OC[C@H]1O[C@@H](n2ccc(N)nc2=O)[C@](C)(N=[N+]=[N-])[C@@H]1O` [Compound 318], the pEC50 under setting [1] is 4.00.
As for `CCOC(=O)[C@H](C)NP(=O)(OC[C@H]1O[C@@H](n2cnc3c(OC)nc(N)nc32)[C@](C)(N=[N+]=[N-])[C@@H]1O)Oc1ccccc1` (some centres unmarked) [Compound 250], the pEC50 is 6.15.
On to `COC(=O)[C@H](C)NP(=O)(OC)OC[C@H]1O[C@@H](n2ccc(N)nc2=O)[C@](C)(N=[N+]=[N-])[C@@H]1O` (single isomer, unassigned) [Compound 345], for which, under “Hepatitis C virus, 72 h”, the pEC50 is less than 4.00.
For the compound `CC(C)OC(=O)[C@H](C)NP(=O)(OC[C@H]1O[C@@H](n2ccc(=O)[nH]c2=O)[C@](C)(N=[N+]=[N-])[C@@H]1O)Oc1ccc2c(c1)OCO2` (some centres unmarked) [Compound 234], the pEC50 was 4.60.
On the same count and under the same terms, under `COC(=O)[C@H](C)NP(=O)(OC[C@H]1O[C@@H](n2ccc(N)nc2=O)[C@](C)(N=[N+]=[N-])[C@@H]1O)Oc1ccccc1Cl` (single isomer, unassigned) [Compound 331] stands 5.00.
Take `CCCCOC(=O)[C@H](C)NP(=O)(OC[C@H]1O[C@@H](n2ccc(=O)[nH]c2=O)[C@](C)(N=[N+]=[N-])[C@@H]1O)Oc1ccccc1` (some centres unmarked) [Compound 26]: for the setting “Hepatitis C virus, 72 h”, the pEC50 was 6.22.
Same read-out and setting: under `CCCCOC(=O)[C@H](C)NP(=O)(OC[C@H]1O[C@@H](n2cnc3c(OC)nc(N)nc32)[C@](C)(N=[N+]=[N-])[C@@H]1O)Oc1ccccc1` (some centres unmarked) [Compound 249] stands 6.05.
Consider `COc1nc(N)nc2c1ncn2[C@@H]1O[C@H](COP(=O)(N[C@@H](C)C(=O)OC(C)C)Oc2ccccc2Cl)[C@@H](O)[C@@]1(C)N=[N+]=[N-]` (single isomer, unassigned) [Compound 280], for which the negative-log EC50 (pEC50) was 5.30.
As for `C[C@@]1(N=[N+]=[N-])[C@@H]2OP(=O)(OC3CCC3)OC[C@H]2O[C@H]1n1ccc(=O)[nH]c1=O` (some centres unmarked) [Compound 83], the pEC50 under setting [1] was 4.20.
As to `CCCCOC(=O)[C@H](C)NP(=O)(OC[C@H]1O[C@@H](n2cnc3c(OCC)nc(N)nc32)[C@](C)(N=[N+]=[N-])[C@@H]1O)Oc1cccc2ccccc12` (single isomer, unassigned) [Compound 171], under “Hepatitis C virus, 72 h”, the pEC50 was 6.30.
`COc1nc(N)nc2c1ncn2[C@@H]1O[C@H](COP(=O)(N[C@@H](C)C(=O)OC(C)C)Oc2ccccc2Cl)[C@@H](O)[C@@]1(C)N=[N+]=[N-]` (single isomer, unassigned) [Compound 281]: the pEC50 was 4.92.
For `CCOC(=O)[C@H](C)NP(=O)(OC[C@H]1O[C@@H](n2cnc3c(OCC)nc(N)nc32)[C@](C)(N=[N+]=[N-])[C@@H]1O)Oc1ccccc1Cl` (single isomer, unassigned) [Compound 359], the pEC50 is 5.48.
Same read-out and setting: under `CCOc1nc(N)nc2c1ncn2[C@@H]1O[C@H](COP(=O)(N[C@@H](C)C(=O)OCc2ccccc2)Oc2ccccc2)[C@@H](O)[C@@]1(C)N=[N+]=[N-]` (single isomer, unassigned) [Compound 350] stands 6.00.
Take `COC(=O)[C@H](C)NP(=O)(OC[C@H]1O[C@@H](n2ccc(=O)[nH]c2=O)[C@](C)(N=[N+]=[N-])[C@@H]1O)Oc1ccccc1` (single isomer, unassigned) [Compound 158]: under “Hepatitis C virus, 72 h”, the pEC50 is 5.05.
Still for that read-out and setting: under `CCOC(=O)[C@H](C)NP(=O)(OC[C@H]1O[C@@H](n2cnc3c(OC)nc(N)nc32)[C@](C)(N=[N+]=[N-])C1O)Oc1ccccc1` (single isomer, unassigned) [Compound 251] stands 6.40.
As for `COc1nc(N)nc2c1ncn2[C@@H]1O[C@H](COP(=O)(N[C@@H](C)C(=O)OC2CCCCC2)Oc2ccc(Cl)cc2)[C@@H](O)[C@@]1(C)N=[N+]=[N-]` (single isomer, unassigned) [Compound 273], the pEC50 is 5.55.
As for `C[C@@]1(N=[N+]=[N-])[C@H](O)[C@@H](CO)O[C@H]1n1cnc2c(N3CCC3)nc(N)nc21` [Compound 137], the pEC50 under setting [1] was less than 4.00.
Take `CCCCOC(=O)[C@H](C)NP(=O)(OC[C@H]1O[C@@H](n2cnc3c(OCC)nc(N)nc32)[C@](C)(N=[N+]=[N-])[C@@H]1O)Oc1ccccc1` (single isomer, unassigned) [Compound 167]: the negative logarithm of the EC50 (pEC50) (Hepatitis C virus, 72 h) was 5.92.
Still for that read-out and setting: the value for `CCOC(=O)[C@H](C)NP(=O)(OC[C@H]1O[C@@H](n2cnc3c(OCC)nc(N)nc32)[C@](C)(N=[N+]=[N-])[C@@H]1O)Oc1ccc(Cl)cc1` (single isomer, unassigned) [Compound 352] was 5.96; that for `CCOC(=O)[C@H](C)NP(=O)(OC[C@H]1O[C@@H](n2cnc3c(OCC)nc(N)nc32)[C@](C)(N=[N+]=[N-])[C@@H]1O)Oc1ccc(F)cc1` (some centres unmarked) [Compound 141] was 6.70.
Take `CCOC(=O)[C@H](C)NP(=O)(OC[C@H]1O[C@@H](n2ccc(=O)[nH]c2=O)[C@](C)(N=[N+]=[N-])[C@@H]1O)Oc1ccccc1` (single isomer, unassigned) [Compound 151]: the negative logarithm of the EC50 (pEC50) is 5.29.
Regarding `CCCOC(=O)[C@H](C)NP(=O)(OC[C@H]1O[C@@H](n2ccc(=O)[nH]c2=O)[C@](C)(N=[N+]=[N-])[C@@H]1O)Oc1ccccc1` (single isomer, unassigned) [Compound 147], the negative-log EC50 (pEC50) (Hepatitis C virus, 72 h) is 5.25.
Take `CCOc1nc(N)nc2c1ncn2[C@@H]1O[C@H](COP(=O)(N[C@@H](C)C(=O)OC2CCCCC2)Oc2ccc(Cl)cc2)[C@@H](O)[C@@]1(C)N=[N+]=[N-]` (single isomer, unassigned) [Compound 314]: the pEC50 was 5.89.
Same read-out and setting: under `COc1nc(N)nc2c1ncn2[C@@H]1O[C@H](COP(=O)(N[C@@H](C)C(=O)OCc2ccccc2)Oc2ccccc2)[C@@H](O)[C@@]1(C)N=[N+]=[N-]` (single isomer, unassigned) [Compound 279] stands 6.00.
For the compound `C[C@H](NP(=O)(O)OC[C@H]1O[C@@H](n2ccc(=O)[nH]c2=O)[C@](C)(N=[N+]=[N-])[C@@H]1O)C(=O)OC1CCCCC1` (single isomer, unassigned) [Compound 329], the pEC50 under setting [1] was less than 4.00.
Take `CCCC(CCC)COC(=O)[C@H](C)NP(=O)(OC[C@H]1O[C@@H](n2ccc(=O)[nH]c2=O)[C@](C)(N=[N+]=[N-])[C@@H]1O)Oc1ccccc1` (some centres unmarked) [Compound 328]: under “Hepatitis C virus, 72 h”, the negative-log EC50 (pEC50) was 5.68.
Still for that read-out and setting: the value for `COC(=O)[C@H](C)NP(=O)(OC[C@H]1O[C@@H](n2ccc(=O)[nH]c2=O)[C@](C)(N=[N+]=[N-])[C@@H]1O)Oc1cc(C)ccc1C(C)C` (some centres unmarked) [Compound 379] was 5.92.
Turning to `CCCOP1(=O)OC[C@H]2O[C@@H](n3ccc(N)nc3=O)[C@](C)(N=[N+]=[N-])[C@@H]2O1` (some centres unmarked) [Compound 33], the negative logarithm of the EC50 (pEC50) under setting [1] is less than 4.00.
For `CCOC(=O)[C@H](C)NP(=O)(OC[C@H]1O[C@@H](n2cnc3c(OCC)nc(N)nc32)[C@](C)(N=[N+]=[N-])[C@@H]1O)Oc1ccc(F)cc1` (single isomer, unassigned) [Compound 175], the pEC50 (Hepatitis C virus, 72 h) was 6.40.
On the same count and under the same terms, under `CCOc1nc(N)nc2c1ncn2[C@@H]1O[C@H](COP(=O)(N[C@@H](C)C(=O)OC(C)C)Oc2ccccc2)[C@@H](O)[C@@]1(C)N=[N+]=[N-]` (some centres unmarked) [Compound 20] stands 6.00; under `CCCOC(=O)[C@H](C)N[P@](=O)(OC[C@H]1O[C@@H](n2ccc(=O)[nH]c2=O)[C@](C)(N=[N+]=[N-])[C@@H]1O)Oc1cccc2ccccc12` (single isomer, unassigned) [Compound 376], 5.66; under `CCCCOC(=O)[C@H](C)NP(=O)(OC[C@H]1O[C@@H](n2ccc(=O)[nH]c2=O)[C@](C)(N=[N+]=[N-])[C@@H]1O)Oc1ccccc1Cl` (some centres unmarked) [Compound 377], 5.17.
With `CCOC(=O)[C@H](C)NP(=O)(OC[C@H]1O[C@@H](n2ccc(N)nc2=O)[C@](C)(N=[N+]=[N-])[C@@H]1O)Oc1ccccc1` (some centres unmarked) [Compound 13], the pEC50 (Hepatitis C virus, 72 h) is 5.19.
As for `C[C@H](NP(=O)(OC[C@H]1O[C@@H](n2ccc(=O)[nH]c2=O)[C@](C)(N=[N+]=[N-])[C@@H]1O)Oc1ccc(Cl)cc1)C(=O)OCc1ccccc1` (some centres unmarked) [Compound 304], under “Hepatitis C virus, 72 h”, the pEC50 is 4.22.
The same measure, in the same setting: the value for `COc1nc(N)nc2c1ncn2[C@@H]1O[C@H](COP(=O)(N[C@@H](C)C(=O)OCC(C)C)Oc2ccccc2)[C@@H](O)[C@@]1(C)N=[N+]=[N-]` (some centres unmarked) [Compound 245] was 6.40.
As to `COc1nc(N)nc2c1ncn2[C@@H]1O[C@H](COP(=O)(N[C@@H](C)C(=O)OCC(C)C)Oc2ccccc2)C(O)[C@@]1(C)N=[N+]=[N-]` (single isomer, unassigned) [Compound 277], the negative-log EC50 (pEC50) is 5.57.
As to `CCOc1nc(N)nc2c1ncn2[C@@H]1O[C@H](COP(=O)(N[C@@H](C)C(=O)OC)Oc2cccc3ccccc23)[C@@H](O)[C@@]1(C)N=[N+]=[N-]` (some centres unmarked) [Compound 70], the negative-log EC50 (pEC50) (Hepatitis C virus, 72 h) is 6.40.
The same measure, in the same setting: the value for `COC(=O)[C@H](C)NP(=O)(OC[C@H]1O[C@@H](n2cnc3c(N4CCC4)nc(N)nc32)[C@](C)(N=[N+]=[N-])[C@@H]1O)Oc1ccccc1` (some centres unmarked) [Compound 390] was 5.47.
